Measured values published in publication PMC9810272 (Nature, 2022).
Like-named read-outs stand apart in the source and are kept apart here.

What was measured:
yeast Tango2p [1] = biological target: T1, yeast Tango2p (Saccharomyces cerevisiae, UniProt P53275); test: UV-vis difference spectra titration; assay type: binding
T1 sequence (P53275 1-312): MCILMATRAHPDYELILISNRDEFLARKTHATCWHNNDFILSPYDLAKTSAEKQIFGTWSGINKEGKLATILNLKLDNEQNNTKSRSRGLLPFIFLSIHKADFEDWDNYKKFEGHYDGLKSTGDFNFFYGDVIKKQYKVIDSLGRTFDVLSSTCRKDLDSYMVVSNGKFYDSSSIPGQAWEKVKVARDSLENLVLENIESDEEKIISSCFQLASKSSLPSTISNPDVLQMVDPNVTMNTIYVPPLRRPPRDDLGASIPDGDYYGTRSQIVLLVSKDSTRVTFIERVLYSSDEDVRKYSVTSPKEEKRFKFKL

yeast Tango2p [2] = biological target: T1, yeast Tango2p; test: UV-vis difference spectra titration; assay type: binding; remark: listed apart in the source

Row | SMILES | Kd (yeast Tango2p [1]) [µM] | Kd (yeast Tango2p [2]) [µM]
1 | C=CC1=C(C)C2=Cc3c(C=C)c(C)c4[n]3[Fe][n]3c(c(C)c(CCC(=O)O)c3=CC3=NC(=C4)C(C)=C3CCC(=O)O)=CC1=N2 [ferric haem] | 38.7 | 
2 | C=CC1=C(C)C2=Cc3c(C=C)c(C)c4[n]3[Fe][n]3c(c(C)c(CCC(=O)O)c3=CC3=NC(=C4)C(C)=C3CCC(=O)O)=CC1=N2 [ferrous haem] |  | 15.4
